What all share (type): in vivo, human
The subject of test [1] is patients 65 years of age and older with major depression. Kind of test: Clinical Global Impression Scale (CGI) in 8-week double-blind comparison. The following applies: day 14. From the text: Clinical Global Impression Scale (CGI) (Guy, W., ECDEU Assessment Manual for Psychopharmacology, DHEW Publication No. (ADM) 76-338, rev. 1976). The CGI scale is a global 7-point rating of the severity of the illness taking into account the preceding week (CGI-Severity) and a global 7-point rating of the clinical status of the subject since baseline (CGI-Change). A responder is defined as being “Much Improved” or “Very Much Improved” —having a CGI score of at least 2 according to CGI-Change. Thus, a higher CGI-Severity score corresponds to more severe depression whereas a higher CGI-Change score corresponds to lessened depression, or an improvement in alleviating the symptoms of depression.
(§1) All statistical analyses were performed using the SAS software package (available from SAS Institute). For clinical measures of depression (HDRS-21, HDRS-17, GDS, and CGI), analyses of covariance were performed with baseline values as the covariate, and apoE genotype (ε4 allele carrier vs. non-carrier) and medication (mirtazapine, paroxetine) as the predictors. For remitter and responder analyses of clinical measures of depression, Cochran-Mantel-Haenszel statistics were used. For comparison of medication and genotype groups on baseline demographic measures, two-way analyses of variance were used.

For test [2] the test system is unchanged. Kind of test: Geriatric Depression Scale (GDS) in 8-week double-blind comparison. The protocol: Geriatric Depression Scale (GDS) (Yesavage, J. A. et al., J. Psychiatr. Res. 17:37-49, 1983), a self-rating scale developed specifically for rating depression in the elderly. In the GDS, a lower rating signifies less depression. GDS 50% responders are defined as subjects with a decrease on a post-baseline assessment of at least 50% as compared to baseline.
as §1

The test system is the same in test [3]. Kind of test: Hamilton Depression Rating Scale (HDRS-17 / HDRS-21) in 8-week double-blind comparison of paroxetine and mirtazapine.
Description: Hamilton Depression Rating Scale (HDRS; 17 and 21 item versions of a structured interview) (Hamilton, M., J. Neurol. Neurosurg. Psychiatr. 23:56-62, 1960; Hamilton, M., Br. J. Soc. Clin. Psychol. 6:278-296, 1967). […] In other words, a lower rating in the HDRS scale signifies less depression. In contrast, HDRS remitters, which are those patients showing the least depression, are defined as subjects who have an HDRS-17 score of less than 7 at a post-baseline visit.
as §1

Where [4] appears, read: day 14, Caucasian subjects, p=0.006.

Structures are written as SMILES.

The results in this text go back to US6399310B1, “Methods for improving the therapeutic response of humans having major depression and carrying the gene for apolipoprotein E4” (Akzo Nobel N.V., priority 2001, dated 2002).

On to `CN1CCN2c3ncccc3Cc3ccccc3C2C1` (stereo not shown) [mirtazapine, 1,2,3,4,10,14b-hexahydro-2-methylpyrazino[2,1-a]pyrido[2,3-c]benzazepine], for which the “CGI scores, ε4 carriers compared with noncarriers” value in test [1] (Caucasian subjects) is reported as “significantly better”. Further, the “CGI scores, mirtazapine treated compared with paroxetine treated subjects” value in test [1] (Caucasian subjects, p=0.037) is listed as “significantly better”. The “CGI scores, mirtazapine-treated compared with paroxetine-treated patients” value in test [1] (full cohort) is “Significantly greater improvement”. In test [2] (day 14, Caucasian subjects), the “GDS scores, ε4 carriers compared with noncarriers” value is recorded as “significantly lower”. Moreover, the “GDS scores, effect of ε4 allele” value in test [2] (day 14, full cohort) is on record as “large decrease in GDS scores”. In addition, in test [3] (day 7, full cohort), the “HDRS-17 scores, mirtazapine-treated compared with paroxetine-treated patients” value is on record as “significantly greater improvement”. Also, in test [3] (day 14, Caucasian subjects), the “HDRS scores, ε4 carriers compared with noncarriers” value is listed as “greater improvement”. Besides, in test [3] (setting [4]), the “mean HDRS-17 scores, mirtazapine compared with paroxetine” value is recorded as “significantly lower” and the “mean HDRS-21 scores, mirtazapine compared with paroxetine” value was “significantly lower”. Also, in test [3] (day 14, full cohort), the “HDRS-17 scores, mirtazapine-treated compared with paroxetine-treated patients” value is listed as “Significantly greater improvement” and the “HDRS-21 scores, mirtazapine-treated compared with paroxetine-treated patients” value was “Significantly greater improvement”. The “HDRS-17 50% responders, ε4 carriers compared with non-ε4 carriers” value in test [3] (day 14, full cohort, p=0.049) is given as “significantly more”.

Take `Fc1ccc([C@@H]2CCNC[C@H]2COc2ccc3c(c2)OCO3)cc1` [paroxetine]: the “CGI scores, ε4 carriers compared with noncarriers” value in test [1] (Caucasian subjects) was “no differences”. Also, in test [2] (day 14, full cohort), the “GDS scores, effect of ε4 allele” value was “no significant difference”. The “50% reduction in GDS score, ε4 carriers compared with noncarriers” value in test [2] (day 28, full cohort) is reported as “no effect of apoE genotype”. Moreover, in test [3] (day 14, Caucasian subjects), the “HDRS scores, ε4 carriers compared with noncarriers” value is given as “lees improvement”.
